Measured values taken from patent publication US20260356856A1, “KRAS G12S AND G12C INHIBITORS” (MIRATI THERAPEUTICS, INC., priority 2023, published 2026).

Columns and labels:
[1] = molecular target: T1, KRas-mediated phosphorylation of ERK in H358 cells (Homo sapiens, UniProt P01116, G12C); experiment: Inhibition of KRas-mediated phosphorylation of ERK (HTRF), H358 cells; assay type: cell-based; details: HTRF pERK, 3 h incubation
T1 construct: pERK HTRF read-out

[2] = molecular target: T2, KRas-mediated phosphorylation of ERK in A549 cells (Homo sapiens, UniProt P01116, G12S); experiment: Inhibition of KRas-mediated phosphorylation of ERK (HTRF), A549 cells; assay type: cell-based; details: HTRF pERK, 3 h incubation
T2 construct: pERK HTRF read-out
T2 sequence (P01116 1-188 isoform P01116-2 G12S): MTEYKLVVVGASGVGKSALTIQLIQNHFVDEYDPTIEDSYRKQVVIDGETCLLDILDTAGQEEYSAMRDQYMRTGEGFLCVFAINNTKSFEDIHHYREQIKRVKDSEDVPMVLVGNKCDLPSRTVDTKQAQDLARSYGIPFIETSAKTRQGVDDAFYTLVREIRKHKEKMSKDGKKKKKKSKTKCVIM

KRas G12C = molecular target: T3, KRas G12C (Homo sapiens, UniProt P01116, G12C); experiment: KRas binding assay, TR-FRET displacement of Cy5 labelled tracer; details: 60-minute incubation at room temperature, 1% DMSO, pH 7.5
T3 construct: Biotinylated KRas (corresponding to amino acids 1-169, produced at Accelegan Inc.); biotin (biotinylated); purchased Accelegan Inc
T3 sequence (P01116 1-169 isoform P01116-2 G12C): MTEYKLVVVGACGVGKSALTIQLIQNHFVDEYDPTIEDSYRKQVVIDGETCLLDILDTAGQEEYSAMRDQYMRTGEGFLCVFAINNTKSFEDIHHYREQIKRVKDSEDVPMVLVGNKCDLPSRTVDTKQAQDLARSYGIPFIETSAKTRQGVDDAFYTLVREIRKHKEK
Method in brief: (§1)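 Each mutant protein, a biotinylated 1-169 construct, was combined with terbium streptavidin, tracer and compound. After sixty minutes at room temperature TR-FRET was recorded. POC data were fitted with a four-parameter IC50 model.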

KRas WT = molecular target: T4, KRas WT (Homo sapiens, UniProt P01116); experiment: as above; details: 60-minute incubation at room temperature, 1% DMSO, pH 7.5
T4 construct: Biotinylated KRas (corresponding to amino acids 1-169, produced at Accelegan Inc.); biotin (biotinylated); purchased Accelegan Inc
T4 sequence (P01116 1-169 isoform P01116-2): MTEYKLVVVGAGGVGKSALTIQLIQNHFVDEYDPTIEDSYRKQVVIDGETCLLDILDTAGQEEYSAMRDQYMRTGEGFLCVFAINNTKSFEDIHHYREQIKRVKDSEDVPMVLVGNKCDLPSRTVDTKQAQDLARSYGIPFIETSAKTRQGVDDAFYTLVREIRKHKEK
Method in brief: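 TR-FRET tracer-displacement readout after 60 min at room temperature, using KRas residues 1-169 (biotinylated) with terbium streptavidin and a Cy5 tracer. Buffer: 50 mM HEPES pH 7.5, 5 mM MgCl2, 0.005% Tween-20, 1 mM DTT, 1% DMSO final. IC50 from 4-parameter fit of POC data.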

KRas G12S = molecular target: T5, KRas G12S (Homo sapiens, UniProt P01116, G12S); experiment: as above; details: 60-minute incubation at room temperature, 1% DMSO, pH 7.5
T5 construct: Biotinylated KRas (corresponding to amino acids 1-169, produced at Accelegan Inc.); biotin (biotinylated); purchased Accelegan Inc
T5 sequence (P01116 1-169 isoform P01116-2 G12S): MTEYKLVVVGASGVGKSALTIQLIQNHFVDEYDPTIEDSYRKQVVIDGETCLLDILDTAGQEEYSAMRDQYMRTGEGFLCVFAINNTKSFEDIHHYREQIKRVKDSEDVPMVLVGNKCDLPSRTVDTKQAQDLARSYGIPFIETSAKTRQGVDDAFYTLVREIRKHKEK
Method in brief: as §1

[3] = molecular target: T6, KRas-mediated phosphorylation of ERK in MKN1 cells (Homo sapiens, UniProt P01116); experiment: Inhibition of KRas-mediated phosphorylation of ERK (HTRF), MKN1 cells; assay type: cell-based; details: MKN1 cells (KRas WT); HTRF pERK; 3 h incubation
T6 construct: pERK HTRF read-out
T6 sequence (P01116 1-188 isoform P01116-2): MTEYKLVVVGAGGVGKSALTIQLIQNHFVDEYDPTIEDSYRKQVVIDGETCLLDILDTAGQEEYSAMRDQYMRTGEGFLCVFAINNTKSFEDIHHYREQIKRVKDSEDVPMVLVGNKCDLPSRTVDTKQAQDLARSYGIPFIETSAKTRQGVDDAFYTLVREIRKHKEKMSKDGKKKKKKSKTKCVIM
Experimental: Inhibition of KRas Phosphorylation of ERK (HTRF) by Exemplary Compounds of Formula (Ia) or (Ib)
Cisbio HTRF Advanced pERK Assay Catalog #64AERPEH • Cells: MKN1, PSN1 • Procedure: • 1. Day 1: Seed 6,000 cells/well −25 μl/well in 384-well white solid bottom plate; RPM1_10% FBS. Incubate overnight at 37 °C/5% CO2. • 2.

T1 sequence (P01116 1-188 isoform P01116-2 G12C): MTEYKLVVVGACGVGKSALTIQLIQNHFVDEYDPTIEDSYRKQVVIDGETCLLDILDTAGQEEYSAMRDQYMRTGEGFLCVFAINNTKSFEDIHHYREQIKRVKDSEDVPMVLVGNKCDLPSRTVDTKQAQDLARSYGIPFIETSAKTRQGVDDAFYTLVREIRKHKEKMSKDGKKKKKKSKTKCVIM

Structure (SMILES) | IC50 [1] | IC50 [2] | IC50 (KRas G12C) | IC50 (KRas WT) | IC50 (KRas G12S) | IC50 [3]
N#Cc1c(N)sc2c(F)ccc(-c3c(Cl)cc4c(N5CCN(S(=O)(=O)n6cncn6)CC5)nc(OC[C@@]56CCCN5C[C@H](F)C6)nc4c3F)c12 [Example 186, 4-(4-(4-((1H-1,2,4-triazol-1-yl)sulfonyl)piperazin-1-yl)-6-chloro-8-fluoro-2-(((2R,7aS)-2-fluorotetrahydro-1H-pyrrolizin-7a(5H)-yl)methoxy)quinazolin-7-yl)-2-amino-7-fluorobenzo[b]thiophene-3-carbonitrile] | 1120 nM | 2830 nM | 136 nM | 32 nM | 156 nM | 184 nM
CCc1c(F)ccc2cc(O)cc(N3CCc4c(nc(OC[C@@]56CCCN5C[C@H](F)C6)nc4N4CCCCCC(C(=O)n5ccc(C)n5)C4)C3)c12 (stereo partly drawn) [Example 192, (1-(7-(8-ethyl-7-fluoro-3-hydroxynaphthalen-1-yl)-2-(((2R,7aS)-2-fluorotetrahydro-1H-pyrrolizin-7a(5H)-yl)methoxy)-5,6,7,8-tetrahydropyrido[3,4-d]pyrimidin-4-yl)azocan-3-yl)(3-methyl-1H-pyrazol-1-yl)methanone] | 160 nM | 4250 nM | 27 nM | 23 nM | 35 nM | 105 nM
CCc1c(F)ccc2cc(O)cc(N3CCc4c(nc(OC[C@@]56CCCN5C[C@H](F)C6)nc4NCCC(=O)n4ccc(C)n4)C3)c12 [Example 195, 3-((7-(8-ethyl-7-fluoro-3-hydroxynaphthalen-1-yl)-2-(((2R,7aS)-2-fluorotetrahydro-1H-pyrrolizin-7a(5H)-yl)methoxy)-5,6,7,8-tetrahydropyrido[3,4-d]pyrimidin-4-yl)amino)-1-(3-methyl-1H-pyrazol-1-yl) propan-1-one] | 1170 nM | 84 nM | 13 nM | 43 nM | 6 nM | 936 nM
Cc1ccn(C(=O)CCCCN(C)c2nc(OC[C@@]34CCCN3C[C@H](F)C4)nc3c(F)c(-c4ccc(F)c5sc(N)c(C#N)c45)c(Cl)cc23)n1 [Example 199, 2-amino-4-(6-chloro-8-fluoro-2-(((2R,7aS)-2-fluorotetrahydro-1H-pyrrolizin-7a(5H)-yl)methoxy)-4-(methyl(5-(3-methyl-1H-pyrazol-1-yl)-5-oxopentyl)amino)quinazolin-7-yl)-7-fluorobenzo[b]thiophene-3-carbonitrile] | 432 nM | 4320 nM | 17 nM | 26 nM | 27 nM | 236 nM
CN(CCCC(=O)N(C)c1ccccn1)c1nc(OC[C@@]23CCCN2C[C@H](F)C3)nc2c(F)c(-c3ccc(F)c4sc(N)c(C#N)c34)c(Cl)cc12 [Example 200, 4-((7-(2-amino-3-cyano-7-fluorobenzo[b]thiophen-4-yl)-6-chloro-8-fluoro-2-(((2R,7aS)-2-fluorotetrahydro-1H-pyrrolizin-7a(5H)-yl)methoxy)quinazolin-4-yl)(methyl)amino)-N-methyl-N-(pyridin-2-yl) butanamide] | 112 nM | 729 nM | 2 nM | 5 nM | 4 nM | 86 nM
CN(CCCC(=O)Nc1cccnc1)c1nc(OC[C@@]23CCCN2C[C@H](F)C3)nc2c(F)c(-c3ccc(F)c4sc(N)c(C#N)c34)c(Cl)cc12 [Example 201, 4-((7-(2-amino-3-cyano-7-fluorobenzo[b]thiophen-4-yl)-6-chloro-8-fluoro-2-(((2R,7aS)-2-fluorotetrahydro-1H-pyrrolizin-7a(5H)-yl)methoxy)quinazolin-4-yl)(methyl)amino)-N-(pyridin-3-yl)butanamide] | 373 nM | 1570 nM | 4 nM | 6 nM | 5 nM | 251 nM

Now those with a lower IC50 [1], led by results:

IC50 [1] | IC50 [2] | IC50 (KRas G12C) | IC50 (KRas WT) | IC50 (KRas G12S) | IC50 [3] | Structure (SMILES)
59 nM | 25 nM | 2 nM | 7 nM | 4 nM | 540 nM | CN(C)Cc1ccn(C(=O)C2CCCN(c3nc(OC[C@@]45CCCN4C[C@H](F)C5)nc4c(F)c(-c5ccc(F)c6sc(N)c(C#N)c56)c(Cl)cc34)CC2)n1 (stereo partly drawn) [Example 205, 2-amino-4-(6-chloro-4-(4-(3-((dimethylamino)methyl)-1H-pyrazole-1-carbonyl)azepan-1-yl)-8-fluoro-2-(((2R,7aS)-2-fluorotetrahydro-1H-pyrrolizin-7a(5H)-yl)methoxy)quinazolin-7-yl)-7-fluorobenzo[b]thiophene-3-carbonitrile]
43 nM | 27 nM | 13 nM | 24 nM | 8 nM | 199 nM | N#Cc1c(N)sc2c(F)ccc(-c3c(Cl)cc4c(N5CCCC(C(=O)n6ccc(C7CC7)n6)CC5)nc(OC[C@@]56CCCN5C[C@H](F)C6)nc4c3F)c12 (stereo partly drawn) [Example 189, 2-amino-4-(6-chloro-4-(4-(3-cyclopropyl-1H-pyrazole-1-carbonyl)azepan-1-yl)-8-fluoro-2-(((2R,7aS)-2-fluorotetrahydro-1H-pyrrolizin-7a(5H)-yl)methoxy)quinazolin-7-yl)-7-fluorobenzo[b]thiophene-3-carbonitrile]
31 nM | 82 nM | 7 nM | 8 nM | 9 nM | 26 nM | CC(C)C(=O)N(C)C(=O)C1CCN(c2nc(OC[C@@]34CCCN3C[C@H](F)C4)nc3c(F)c(-c4ccc(F)c5sc(N)c(C#N)c45)c(Cl)cc23)CC1 [Example 206, 1-(7-(2-amino-3-cyano-7-fluorobenzo[b]thiophen-4-yl)-6-chloro-8-fluoro-2-(((2R,7aS)-2-fluorotetrahydro-1H-pyrrolizin-7a(5H)-yl)methoxy)quinazolin-4-yl)-N-isobutyryl-N-methylpiperidine-4-carboxamide]
28 nM | 489 nM | 2 nM | 77 nM | 14 nM | 159 nM | CN(CCCC(=O)Oc1cccc(F)c1)c1nc(OC[C@@]23CCCN2C[C@H](F)C3)nc2c(F)c(-c3ccc(F)c4sc(N)c(C#N)c34)c(Cl)cc12 [Example 198, 3-fluorophenyl 4-((7-(2-amino-3-cyano-7-fluorobenzo[b]thiophen-4-yl)-6-chloro-8-fluoro-2-(((2R,7aS)-2-fluorotetrahydro-1H-pyrrolizin-7a(5H)-yl)methoxy)quinazolin-4-yl)(methyl)amino)butanoate]
17 nM | 351 nM | < 2 nM | 38 nM | 13 nM | 230 nM | CN(CCCC(=O)Oc1ccccc1)c1nc(OC[C@@]23CCCN2C[C@H](F)C3)nc2c(F)c(-c3ccc(F)c4sc(N)c(C#N)c34)c(Cl)cc12 [Example 204, phenyl 4-((7-(2-amino-3-cyano-7-fluorobenzo[b]thiophen-4-yl)-6-chloro-8-fluoro-2-(((2R,7aS)-2-fluorotetrahydro-1H-pyrrolizin-7a(5H)-yl)methoxy)quinazolin-4-yl)(methyl)amino)butanoate]
9 nM | 39 nM | 8 nM | 26 nM | 13 nM | 140 nM | CN(C)c1ccn(C(=O)C2CCCN(c3nc(OC[C@@]45CCCN4C[C@H](F)C5)nc4c(F)c(-c5ccc(F)c6sc(N)c(C#N)c56)c(Cl)cc34)CC2)n1 (stereo partly drawn) [Example 188, 2-amino-4-(6-chloro-4-(4-(3-(dimethylamino)-1H-pyrazole-1-carbonyl)azepan-1-yl)-8-fluoro-2-(((2R,7aS)-2-fluorotetrahydro-1H-pyrrolizin-7a(5H)-yl)methoxy)quinazolin-7-yl)-7-fluorobenzo[b]thiophene-3-carbonitrile]
7 nM | 7 nM | 5 nM | 13 nM | 4 nM | 205 nM | COCc1ccn(C(=O)C2CCCN(c3nc(OC[C@@]45CCCN4C[C@H](F)C5)nc4c(F)c(-c5ccc(F)c6sc(N)c(C#N)c56)c(Cl)cc34)CC2)n1 (stereo partly drawn) [Example 190, 2-amino-4-(6-chloro-8-fluoro-2-(((2R,7aS)-2-fluorotetrahydro-1H-pyrrolizin-7a(5H)-yl)methoxy)-4-(4-(3-(methoxymethyl)-1H-pyrazole-1-carbonyl)azepan-1-yl)quinazolin-7-yl)-7-fluorobenzo[b]thiophene-3-carbonitrile]
1 nM | 290 nM | < 2 nM | 6 nM | 7 nM | 15 nM | N#Cc1c(N)sc2c(F)ccc(-c3c(Cl)cc4c(N5CCN(C(=O)n6nccn6)CC5)nc(OC[C@@]56CCCN5C[C@H](F)C6)nc4c3F)c12 [Example 191, 4-(4-(4-(2H-1,2,3-triazole-2-carbonyl)piperazin-1-yl)-6-chloro-8-fluoro-2-(((2R,7aS)-2-fluorotetrahydro-1H-pyrrolizin-7a(5H)-yl)methoxy)quinazolin-7-yl)-2-amino-7-fluorobenzo[b]thiophene-3-carbonitrile]
